# In ChEMBL document CHEMBL1122716, “cis-1,3,4,6,7,11b-Hexahydro-2-methyl-7-phenyl-2H-pyrazino[2,1-a] isoquinoline: a new atypical antidepressant” (J Med Chem, 1984):
# Assay: Binding affinity towards histamine receptor by inhibiting specific binding of [3H]-mepyramine (3 nM) in vitro to membranes of rat brain without cerebellum
# Type: cell membranes
row,SMILES,IC50 [nM]
1,c1ccc(CCN2CCN3CC(c4ccccc4)c4ccccc4C3C2)cc1 (centres undefined),> 10000
2,CN(C)CC1NCC(c2ccccc2)c2ccccc21 (centres undefined),2000
3,CN1CCN2CC(c3ccc(O)cc3)c3ccccc3C2C1 (centres undefined),190
4,c1ccc(C2CN3CCNCC3c3ccccc32)cc1 (centres undefined),> 10000
5,COc1ccc(C2CN3CCN(C)CC3c3ccccc32)cc1 (centres undefined),680
6,CN1CCN2CC(c3ccc(Cl)cc3)c3ccccc3C2C1 (centres undefined),380
7,c1ccc(CN2CCN3CC(c4ccccc4)c4ccccc4C3C2)cc1 (centres undefined),> 10000
8,CCCCCCN1CCN2CC(c3ccccc3)c3ccccc3C2C1 (centres undefined),> 10000
9,CCN1CCN2CC(c3ccccc3)c3ccccc3C2C1 (centres undefined),280
10,CN1CCN2CC(c3ccc([N+](=O)[O-])cc3)c3ccccc3C2C1 (cis isomer),520
11,CCCN1CCN2CC(c3ccccc3)c3ccccc3C2C1 (cis isomer),> 10000
12,CN1CCN2CC(c3ccc(N)cc3)c3ccccc3C2C1 (cis isomer),860
13,CCCCN1CCN2CC(c3ccccc3)c3ccccc3C2C1 (cis isomer),> 10000
14,CN(C)CC1c2ccccc2C(c2ccccc2)CN1C (cis isomer),> 10000
15,CN1CCN2CC(c3ccc([N+](=O)[O-])cc3)c3ccc([N+](=O)[O-])cc3C2C1 (cis isomer),> 10000
16,CCNCC1NCC(c2ccccc2)c2ccccc21 (cis isomer),5000
17,"CN1CCN2CC(c3ccccc3)c3ccccc3C2C1 (single isomer, unassigned; (-))",40
18,CNCC1NCC(c2ccccc2)c2ccccc21 (stereo in doubt; 4a),3500
19,CNCC1NCC(c2ccccc2)c2ccccc21 (stereo in doubt; 5),170
20,CN1CCN2CC(c3ccccc3)c3ccccc3C2C1 (stereo in doubt; 7a),60
21,CN1CCN2CC(c3ccccc3)c3ccccc3C2C1 (stereo in doubt; 10),2800
22,CN1CCN2CC(c3ccccc3)c3ccccc3C2C1 (trans isomer),> 10000
23,CN(C)CCCN1c2ccccc2CCc2ccccc21 [IMIPRAMINE],30
24,CN1CCN2c3ccccc3Cc3ccccc3C2C1 (centres undefined) [MIANSERIN],14
